System: NMNAT2
Test: NMNAT2-Hibit nano-luciferase activity in transfected U87MG cells, 25 μM, 24 hours
Type: cell-based
Settings: NMNAT2-Hibit luc plasmid, 24 hours (Table C)
Procedure: Selected compounds were tested in vitro. Briefly, U87MG cells were transfected with NMNAT2-Hibit luc plasmid. Cells were treated with a test compound at 25 μM for 24 hours. Cells were then collected and assayed for nano-luciferase activity.

Row | SMILES | C: Compound efficacy for NMNAT2 activation; increase in NMNAT2 luciferase activity
1 | COc1cccc(CNC(=O)Cn2c(C)cc(C)c(C#N)c2=O)c1 [Compound 181125] | + (“+” <20% increase in NMNAT2 luciferase activity.)
2 | COc1ccccc1CNC(=O)Cn1c(C)cc(C)c(C#N)c1=O [Compound 181126] | + (“+” <20% increase in NMNAT2 luciferase activity.)
3 | COc1ccc(CNC(=O)Cn2c(C)cc(C)c(C#N)c2=O)cc1OC [Compound 181127] | + (“+” <20% increase in NMNAT2 luciferase activity.)
4 | Cc1cc(C)n(CC(=O)NCc2ccco2)c(=O)c1C#N [Compound 181128] | + (“+” <20% increase in NMNAT2 luciferase activity.)
5 | Cc1cc(C)n(CC(=O)NCC2=CC=CC2)c(=O)c1C#N [Compound 181129] | + (“+” <20% increase in NMNAT2 luciferase activity.)
6 | Cc1cc(C)n(CC(=O)NCc2ccccc2Cl)c(=O)c1C#N [Compound 181130] | + (“+” <20% increase in NMNAT2 luciferase activity.)
7 | Cc1cc(C)n(CC(=O)NCCC(C)C)c(=O)c1C#N [Compound 181131] | + (“+” <20% increase in NMNAT2 luciferase activity.)
8 | CSc1ccc(CNC(=O)Cn2c(C)cc(C)c(C#N)c2=O)cc1 [Compound 181132] | + (“+” <20% increase in NMNAT2 luciferase activity.)
9 | Cc1cc(C)n(CC(=O)Nc2ccc(C(=O)NCc3ccco3)cc2)c(=O)c1C#N [Compound 181133] | + (“+” <20% increase in NMNAT2 luciferase activity.)
10 | Cc1ccc(CNC(=O)c2ccc(NC(=O)Cn3c(C)cc(C)c(C#N)c3=O)cc2)o1 [Compound 181134] | + (“+” <20% increase in NMNAT2 luciferase activity.)
11 | Cc1cc(C)n(CC(=O)Nc2ccccc2C(=O)NCc2ccco2)c(=O)c1C#N [Compound 181135] | + (“+” <20% increase in NMNAT2 luciferase activity.)
12 | Cn1c(=O)c(=O)n(CC(=O)NCc2ccco2)c2ccccc21 [Compound 181136] | + (“+” <20% increase in NMNAT2 luciferase activity.)
13 | Cc1ccc(CNC(=O)Cn2c(=O)c(=O)n(C)c3ccccc32)o1 [Compound 181137] | + (“+” <20% increase in NMNAT2 luciferase activity.)
14 | CCn1c(=O)c(=O)n(CC(=O)NCc2ccco2)c2ccccc21 [Compound 181138] | + (“+” <20% increase in NMNAT2 luciferase activity.)
15 | CCn1c(=O)c(=O)n(CC(=O)NCc2ccc(C)o2)c2ccccc21 [Compound 181139] | + (“+” <20% increase in NMNAT2 luciferase activity.)
16 | Cc1cc2c(=O)n(CC(=O)NCc3ccco3)ccc2s1 [Compound 181140] | + (“+” <20% increase in NMNAT2 luciferase activity.)
17 | CCn1ccc2cc(CCC(=O)NCc3ccco3)ccc21 [Compound 181141] | ++ (“++” >20% and <100% increase in NMNAT2 luciferase activity.)
18 | Cc1ccc(C(CC(=O)NCc2ccco2)c2cn(C)c3ccccc23)cc1 (centres unmarked) [Compound 181142] | + (“+” <20% increase in NMNAT2 luciferase activity.)

Row | SMILES | C: Compound efficacy for NMNAT2 activation; increase in NMNAT2 luciferase activity
19 | Cn1cc(C(CC(=O)NCc2ccco2)c2cccc(F)c2)c2ccccc21 (centres unmarked) [Compound 181143] | + (“+” <20% increase in NMNAT2 luciferase activity.)
20 | Cc1cc2ccccc2n1CC(=O)NCc1ccco1 [Compound 181144] | + (“+” <20% increase in NMNAT2 luciferase activity.)
21 | CC(=O)c1cn(CC(=O)NCc2ccco2)c2ccccc12 [Compound 181145] | + (“+” <20% increase in NMNAT2 luciferase activity.)
22 | COc1cccc2ccn(CC(=O)NCc3ccco3)c12 [Compound 181146] | + (“+” <20% increase in NMNAT2 luciferase activity.)
23 | O=C(Cn1ccc2ccccc21)NCc1ccco1 [Compound 181147] | + (“+” <20% increase in NMNAT2 luciferase activity.)
24 | O=C(Cn1ccc2ccccc21)NCc1ccc(F)cc1 [Compound 181148] | ++ (“++” >20% and <100% increase in NMNAT2 luciferase activity.)
25 | O=C(Cn1ccc2cc(Br)ccc21)NCc1ccco1 [Compound 181149] | ++ (“++” >20% and <100% increase in NMNAT2 luciferase activity.)
26 | COc1ccc(CNC(=O)Cn2ccc3ccc(F)cc32)cc1OC [Compound 181150] | + (“+” <20% increase in NMNAT2 luciferase activity.)
27 | COc1ccccc1CNC(=O)Cn1ccc2ccc(F)cc21 [Compound 181151] | + (“+” <20% increase in NMNAT2 luciferase activity.)
28 | O=C(Cn1ccc2ccc(F)cc21)NCc1ccco1 [Compound 181152] | + (“+” <20% increase in NMNAT2 luciferase activity.)
29 | O=C(Cn1ccc2ccc(Br)cc21)NCCCc1ccco1 [Compound 181153] | ++ (“++” >20% and <100% increase in NMNAT2 luciferase activity.)
30 | CC(CCc1ccco1)NC(=O)Cn1ccc2ccc(Br)cc21 (centres unmarked) [Compound 181154] | ++ (“++” >20% and <100% increase in NMNAT2 luciferase activity.)
31 | O=C(NCCn1ccc2c(Cl)cccc21)c1ccco1 [Compound 181155] | + (“+” <20% increase in NMNAT2 luciferase activity.)
32 | O=C(NCCn1ccc2ccc(Cl)cc21)c1ccco1 [Compound 181156] | + (“+” <20% increase in NMNAT2 luciferase activity.)
33 | COc1ccc2c(ccn2CCNC(=O)c2ccco2)c1 [Compound 181157] | + (“+” <20% increase in NMNAT2 luciferase activity.)
34 | O=C(NCCn1ccc2cc(Br)ccc21)c1ccco1 [Compound 181158] | + (“+” <20% increase in NMNAT2 luciferase activity.)
35 | Cc1cc2ncn(CC(=O)NCc3ccco3)c2cc1C [Compound 181159] | + (“+” <20% increase in NMNAT2 luciferase activity.)

System: NMNAT2
Test: NMNAT2-Hibit nano-luciferase activity in transfected U87MG cells, 5 μM, 48 hours
Type: cell-based
Settings: NMNAT2-Hibit luciferase plasmid, 48 hours (Table D)
Procedure: Selected compounds were tested in vitro. Briefly, U87MG cells were transfected with NMNAT2-Hibit luciferase plasmid. Cells were treated with test compound at 5 μM for 48 hours. Cells were then collected and assayed for nano-luciferase activity.

Row | SMILES | D: compound efficacy for NMNAT2 activation; increase in NMNAT2 luciferase activity
36 | O=C(Cn1cc(C(=O)C(F)(F)F)c2ccccc21)NCc1ccccc1 [BC181201] | +++ (“+++” >100% increase in NMNAT2 luciferase activity.)
37 | O=C(Cn1cc(C(=O)C2CC2)c2ccccc21)NCc1ccco1 [BC181202] | + (“+” <20% increase in NMNAT2 luciferase activity.)
38 | O=C(Cn1cc(C(=O)C2CC2)c2ccccc21)NCc1ccccc1 [BC181203] | ++ (“++” >20% and <100% increase in NMNAT2 luciferase activity.)
39 | O=C(Cn1cc(C(=O)C2=CC=CC2)c2ccccc21)NCc1ccccc1 [BC181204] | ++ (“++” >20% and <100% increase in NMNAT2 luciferase activity.)
40 | CC1CCN(C(=O)Cn2cc(C(=O)c3ccccc3)c3ccccc32)CC1 [BC181205] | + (“+” <20% increase in NMNAT2 luciferase activity.)
41 | O=C(Cn1cc(C(=O)c2ccccc2)c2ccccc21)NCc1ccco1 [BC181206] | ++ (“++” >20% and <100% increase in NMNAT2 luciferase activity.)
42 | O=C(Cn1cc(C(=O)c2ccccc2)c2ccccc21)NCC1=CC=CC1 [BC181207] | ++ (“++” >20% and <100% increase in NMNAT2 luciferase activity.)
43 | Cc1cccc(NC(=O)Cn2cc(C(=O)c3ccccc3)c3ccccc32)c1 [BC181208] | + (“+” <20% increase in NMNAT2 luciferase activity.)
44 | Cc1ccc(NC(=O)Cn2cc(C(=O)c3ccccc3)c3ccccc32)cc1 [BC181209] | + (“+” <20% increase in NMNAT2 luciferase activity.)
45 | Cc1cccc(NC(=O)Cn2cc(C(=O)c3ccccc3)c3ccccc32)c1C [BC181210] | ++ (“++” >20% and <100% increase in NMNAT2 luciferase activity.)
46 | Cc1ccc(C)c(NC(=O)Cn2cc(C(=O)c3ccccc3)c3ccccc32)c1 [BC181211] | ++ (“++” >20% and <100% increase in NMNAT2 luciferase activity.)
47 | Cc1ccc(NC(=O)Cn2cc(C(=O)c3ccccc3)c3ccccc32)cc1C [BC181212] | + (“+” <20% increase in NMNAT2 luciferase activity.)
48 | COc1ccc(NC(=O)Cn2cc(C(=O)c3ccccc3)c3ccccc32)cc1 [BC181213] | + (“+” <20% increase in NMNAT2 luciferase activity.)
49 | COCCNC(=O)Cn1cc(C(=O)c2ccccc2)c2ccccc21 [BC181214] | + (“+” <20% increase in NMNAT2 luciferase activity.)
50 | O=C(Cn1cc(C(=O)c2ccccc2)c2ccccc21)Nc1ccc(Br)cc1 [BC181215] | + (“+” <20% increase in NMNAT2 luciferase activity.)
51 | O=C(Cn1cc(C(=O)c2ccccc2)c2ccccc21)NCc1ccc2c(c1)OCO2 [BC181216] | + (“+” <20% increase in NMNAT2 luciferase activity.)
52 | CCN(CC)C(=O)Cn1cc(C(=O)c2ccccc2)c2ccccc21 [BC181217] | + (“+” <20% increase in NMNAT2 luciferase activity.)
53 | CC1CCCCN1C(=O)Cn1cc(C(=O)c2ccccc2)c2ccccc21 (centres unmarked) [BC181218] | + (“+” <20% increase in NMNAT2 luciferase activity.)

From US20220169632A1, “METHODS AND MATERIALS FOR INCREASING OR MAINTAINING NICOTINAMIDE MONONUCLEOTIDE ADENYLYL TRANSFERASE-2 (NMNAT2) POLYPEPTIDE LEVELS” (University of Pittsburgh - Of the Commonwealth System of …, priority 2019, published 2022)
